Like-named read-outs stand apart in the source and are kept apart here.
Columns and labels:
nitrification in soil [1] = test: Inhibition of nitrification in soil (48 well plate, ammonium sulfate, colour reaction read at 540 nm); format: cell-based; settings: dose of 10 ppm
Method: The compounds of the invention have been tested as follows in terms of the inhibition of nitrification: Soil was sampled fresh from a field (e.g. Limburgerhof), dried and sieved through a 500 μm sieve. Approximately 200 mg of soil were placed into each well of a 48 well plate. Compounds, or DMSO alone, were added at a concentration of 10 ppm, dissolved in 1% DMSO. 6 μmol ammonium sulfate was added per well as well as 4.8 mg NaClO3.
Subsequently, the samples were incubated at room temperature for up to 72 hrs. After the incubation period 64 mg KCl were added and mixed. 25 μl of the supernatant were placed into a fresh plate and 260 μl of a color reaction solution (from Merck Nr 1.11799.0100) were added.
Measurements were taken with a Tecan plate Reader at 540 nm wavelength.
Inhibition is calculated as x=% activity compared to control, and converted to 100-x to give the value of inhibition, rather than activity.

nitrification in soil [2] = test: as above; format: cell-based; settings: dose of 3% a.i./NH, best value obtained, read-out: IN (best inhibition value, inhibition of nitrification = 100 - % activity compared to control)
[3] = 72 h, soil, up to 72 hrs at room temperature, control DMSO only, best value obtained, read-out: IN (best inhibition value, inhibition of nitrification = 100 - % activity compared to control)

| Structure (SMILES) | inhibition at 10 ppm (nitrification in soil [1]; [3]) | inhibition at 3 % strength (nitrification in soil [2]) | other results |
| --- | --- | --- | --- |
| C#CCSc1cnccn1 [Compound 1-21] | 69% |  |  |
| C#Cc1ccccc1 [Phenylacetylene, phenylacetylene, reference compound] |  |  | inhibition at 10 ppm (nitrification in soil [1]; reference compound, same conditions, read-out: IN (inhibition value, inhibition of nitrification)): 7% |
| C#CCS(=O)(=O)CC#C [Compound 1-8] | 70% |  |  |
| C#CCSCC#C [Compound 2-10] |  | 97% |  |
| C#CCSc1sc2ccccc2[n+]1C.[Br-] [Compound 1-22] |  |  | IN (best inhibition value, inhibition of nitrification = 100 - % activity compared to control) (nitrification in soil [1]; soil, up to 72 hrs at room temperature, control DMSO only, best value obtained): 42% |
| C#CCSCc1ccccc1 [Compound 2-7] |  | 28% |  |
| C#CCS/C(N)=N\N=C\c1ccc(OC)cc1 [Compound 1-1] | 42% |  |  |
| C#CCSc1cnc2ccccc2n1 [Compound 1-23] | 33% |  |  |
| C#CCCS/C(C)=N\O [Compound 1-20] | 48% |  |  |
| C#CCSc1nc2c(cc1C#N)CCC2 [Compound 1-12] | 52% |  |  |
| C#CCSc1nccn1-c1ncc(C(F)(F)F)cc1Cl [Compound 1-19] | 42% |  |  |
| C#CCS(=O)(=O)Cc1ccccc1 [Compound 2-4] |  | 23% |  |
| C#CCSC1=NCCN1/N=C/c1ccc(C)cc1 [Compound 1-3] | 68% |  |  |
| C#CCSc1nc2ccsc2c(=O)n1C [Compound 1-11] | 55% |  |  |
| C#CCSc1sc2ccccc2[n+]1C [Compound 2-1] |  | 20% |  |
| C#CC[S+]([O-])CC#C [Compound 1-7] | 72% |  |  |
| C#CCS/C(N)=N\N=C\c1ccc(F)cc1 [Compound 1-10] | 59% |  |  |
| C#CCSC1=NNC(c2ccccn2)S1 (stereo not shown) [Compound 1-17] | 46% |  |  |
| C#CC[S+]([O-])Cc1ccc(Cl)cc1 (stereo not shown) [Compound 2-5] |  | 24% |  |
| C#CCSc1ccccc1 [Compound 2-9] |  | 48% |  |
| C#CCS/C(N)=N\N=C\c1ccc(N(C)C)cc1 [Compound 2-2] |  | 20% |  |
| C#CCS/C(C)=N\O [Compound 1-9] | 67% |  |  |
| C#CCSc1ncccn1 [Compound 1-6] | 59% |  |  |
| C#CC[S+]([O-])Cc1ccc(OC)cc1 (stereo not shown) [Compound 2-3] |  | 23% |  |
| C#CCSc1nnc(S)s1 [Compound 1-13] | 51% |  |  |
| C#CCSCc1ccc(Cl)cc1 [Compound 2-6] |  | 28% |  |
| C#CCSc1sc2ccccc2[n+]1C [Compound 1-18] | 44% |  |  |
| C#CCSc1nnc(N)s1 [Compound 2-8] |  | 38% |  |

Source: patent US11053175B2, “Thioether compounds as nitrification inhibitors” (BASF SE, priority 2015, dated 2021)
